Each structure is given as a SMILES string.

Here are results for 1 compound from patent US12576127B2, “Fibroblast binding agents and use thereof” (Orionis Biosciences, Inc., priority 2018, dated 2026).

The test system of the assay is B16BL6 cells. The experiment in a line: B16BL6 tumor model (Example 8). It counts as in vivo, mouse. Particulars: p.l. days 7-15, FIGS. 14A-B. The procedure:
Mice were maintained in pathogen-free conditions in a temperature-controlled environment with 12/12 hour light/dark cycles and received food and water ad libitum. Female C57BL/6J mice (Charles River Laboratories, Saint-Germain sur l'Arbresle, France) were inoculated with B16BL6 or MC38 or Panc02 cells, at the age of 8 weeks, using a 30G insulin syringe, in 50 μl suspension, on the shaved flank of briefly sedated mice (using 4% isoflurane). B16BL6 cells are a murine melanoma cell line that are typically used as a model for human skin cancers with increased resistance to doxorubicin. MC38 cells are derived from a murine colon adenocarcinoma and are typically used as a model for human colon cancers. Panc02 cells are derived from a murine pancreatic ductal adenocarcinoma and are typically used as a model for human pancreatic cancers.
All tumor treatments were done perilesionally (p.l.), which is s.c. at the tumor border, starting at day 7 after tumor inoculation. Mice received FAP-AFN or FAP-WTmIFN treatments on days 7, 8, 9, 10, 12, 13, 14 and 15. Control mice were treated with PBS on the same days. FAP-AFN or FAP-VVTmIFN were given about […] (1.8 mg/kg). […]

Take `COc1cccc2c1C(=O)c1c(O)c3c(c(O)c1C2=O)C[C@@](O)(C(=O)CO)C[C@@H]3O[C@H]1C[C@H](N)[C@H](O)[C@H](C)O1` [doxorubicin]: the tumor growth result is reported as “tumor stasis at best, but no tumor regression”.
